pIC50, pKi: −log10 of the molar value.
Tests used:
[1] = tested on: Human immunodeficiency virus; test: Binding affinity to U5 GTCT LTR HIV wild type integrase using U5 GTCT LTR relative to wild type LTR; conditions: tested as the 3H-labelled form
[2] = tested on: Human immunodeficiency virus; test: Binding affinity to HIV wild type integrase using U5 GTAC LTR relative to wild type LTR; conditions: tested as the 3H-labelled form
[3] = tested on: Human immunodeficiency virus; test: Inhibition of HIV wild type integrase assessed as strand transfer activity using U5 GTAC LTR by scintillation proximity assay relative to wild type LTR; design: scale not given: the % may be the effect or the level left; conditions: tested as the 3H-labelled form
[4] = tested on: Human immunodeficiency virus; test: Binding affinity to HIV wild type integrase using U5 GTCA/CC LTR relative to wild type LTR; conditions: tested as the 3H-labelled form
[5] = tested on: Human immunodeficiency virus; test: Inhibition of HIV wild type integrase assessed as specific strand transfer activity using U5 ApTCA LTR by scintillation proximity assay relative to wild type LTR; design: scale not given: the % may be the effect or the level left; conditions: tested as the 3H-labelled form
[6] = tested on: Human immunodeficiency virus type 1 integrase (Human immunodeficiency virus 1), Q7ZJM1 [Q148R]; test: Inhibition of U5 GdCA LTR HIV recombinant integrase Q148R mutant assessed as specific strand transfer activity using by scintillation proximity assay relative to wild type LTR; design: scale not given: the % may be the effect or the level left; conditions: tested as the 3H-labelled form
[7] = tested on: Human immunodeficiency virus type 1 integrase (Human immunodeficiency virus 1), Q7ZJM1 [Q148R]; test: Inhibition of U5 TTCA LTR HIV recombinant integrase Q148R mutant assessed as specific strand transfer activity using by scintillation proximity assay relative to wild type LTR; design: scale not given: the % may be the effect or the level left; conditions: tested as the 3H-labelled form
[8] = Inhibition of HIV wild type integrase strand transfer activity; design: species or system Human immunodeficiency virus
[9] = tested on: Human immunodeficiency virus type 1 integrase (Human immunodeficiency virus 1), Q7ZJM1 [N155H]; test: Inhibition of HIV recombinant integrase N155H mutant assessed as specific strand transfer activity using U5 GTCA LTR by scintillation proximity assay relative to wild type LTR; design: scale not given: the % may be the effect or the level left; conditions: tested as the 3H-labelled form
[10] = tested on: Human immunodeficiency virus; test: Inhibition of HIV wild type integrase assessed as specific strand transfer activity using U5 GdC LTR by scintillation proximity assay relative to wild type LTR; design: scale not given: the % may be the effect or the level left; conditions: tested as the 3H-labelled form
[11] = tested on: Human immunodeficiency virus; test: Binding affinity to HIV wild type integrase using U5 GCCA LTR relative to wild type LTR; conditions: tested as the 3H-labelled form
[12] = tested on: Human immunodeficiency virus; test: Inhibition of HIV wild type integrase assessed as strand transfer activity using U5 ApTCA LTR by scintillation proximity assay relative to wild type LTR; design: scale not given: the % may be the effect or the level left; conditions: tested as the 3H-labelled form
[13] = tested on: Human immunodeficiency virus; test: Binding affinity to HIV wild type integrase using U5 GTTC LTR relative to wild type LTR; conditions: tested as the 3H-labelled form
[14] = tested on: Human immunodeficiency virus; test: (§1) Binding affinity to HIV wild type integrase using U5 GTAA LTR relative to wild type LTR; conditions: tested as the 3H-labelled form
[15] = tested on: Human immunodeficiency virus; test: Inhibition of HIV wild type integrase assessed as specific strand transfer activity using U5 GInCA LTR by scintillation proximity assay relative to wild type LTR; design: scale not given: the % may be the effect or the level left; conditions: tested as the 3H-labelled form
[16] = tested on: Human immunodeficiency virus; test: Inhibition of HIV wild type integrase assessed as strand transfer activity using U5 GGCA LTR by scintillation proximity assay relative to wild type LTR; design: scale not given: the % may be the effect or the level left; conditions: tested as the 3H-labelled form
[17] = tested on: Human immunodeficiency virus; test: Inhibition of HIV wild type integrase assessed as specific strand transfer activity using U5 GGCA LTR by scintillation proximity assay relative to wild type LTR; design: scale not given: the % may be the effect or the level left; conditions: tested as the 3H-labelled form
[18] = tested on: Human immunodeficiency virus; test: Binding affinity to HIV wild type integrase using U5 GTGC LTR relative to wild type LTR; conditions: tested as the 3H-labelled form
[19] = tested on: Human immunodeficiency virus; test: Inhibition of HIV wild type integrase assessed as strand transfer activity using U5 GTCACA LTR by scintillation proximity assay relative to wild type LTR; design: scale not given: the % may be the effect or the level left; conditions: tested as the 3H-labelled form
[20] = tested on: Human immunodeficiency virus; test: Inhibition of HIV wild type integrase assessed as strand transfer activity using U5 TTCA LTR by scintillation proximity assay relative to wild type LTR; design: scale not given: the % may be the effect or the level left; conditions: tested as the 3H-labelled form
[21] = tested on: Human immunodeficiency virus; test: Inhibition of HIV wild type integrase assessed as strand transfer activity using U5 GdC LTR by scintillation proximity assay relative to wild type LTR; design: scale not given: the % may be the effect or the level left; conditions: tested as the 3H-labelled form
[22] = tested on: Human immunodeficiency virus; test: Binding affinity to HIV wild type integrase using U5 GTCA/CT LTR relative to wild type LTR; conditions: tested as the 3H-labelled form
[23] = tested on: Human immunodeficiency virus type 1 integrase (Human immunodeficiency virus 1), Q7ZJM1 [Q148R]; test: Binding affinity to HIV recombinant integrase Q148R mutant using U5 GdCA LTR relative to wild type LTR; conditions: tested as the 3H-labelled form
[24] = tested on: Human immunodeficiency virus; test: Binding affinity to HIV wild type integrase using U5 GTCA/CG LTR relative to wild type LTR; conditions: tested as the 3H-labelled form
[25] = tested on: Human immunodeficiency virus type 1 integrase (Human immunodeficiency virus 1), Q7ZJM1 [Q148R]; test: Inhibition of HIV recombinant integrase Q148R mutant assessed as strand transfer activity using U5 GTdA LTR by scintillation proximity assay relative to wild type LTR; design: scale not given: the % may be the effect or the level left; conditions: tested as the 3H-labelled form
[26] = tested on: Human immunodeficiency virus type 1 integrase (Human immunodeficiency virus 1), Q7ZJM1 [N155H]; test: Inhibition of HIV recombinant integrase N155H mutant assessed as specific strand transfer activity using U5 dTCA LTR by scintillation proximity assay relative to wild type LTR; design: scale not given: the % may be the effect or the level left; conditions: tested as the 3H-labelled form
[27] = tested on: Human immunodeficiency virus type 1 integrase (Human immunodeficiency virus 1), Q7ZJM1 [Q148R]; test: Inhibition of U5 GTdA LTR HIV recombinant integrase Q148R mutant assessed as specific strand transfer activity using by scintillation proximity assay relative to wild type LTR; design: scale not given: the % may be the effect or the level left; conditions: tested as the 3H-labelled form
[28] = tested on: Human immunodeficiency virus; test: Inhibition of HIV wild type integrase assessed as strand transfer activity using U5 GTCA LTR by scintillation proximity assay relative to wild type LTR; design: scale not given: the % may be the effect or the level left; conditions: tested as the 3H-labelled form
[29] = tested on: Human immunodeficiency virus; test: Binding affinity to HIV wild type integrase U5 GACA/CT LTR relative to wild type LTR; conditions: tested as the 3H-labelled form
[30] = tested on: Human immunodeficiency virus; test: Inhibition of HIV wild type integrase assessed as specific strand transfer activity using U5 GTGA LTR by scintillation proximity assay relative to wild type LTR; design: scale not given: the % may be the effect or the level left; conditions: tested as the 3H-labelled form
[31] = tested on: Human immunodeficiency virus type 1 integrase (Human immunodeficiency virus 1), Q7ZJM1 [Q148R]; test: Binding affinity to HIV recombinant integrase Q148R mutant using U5 ApTCA LTR relative to wild type LTR; conditions: tested as the 3H-labelled form
[32] = tested on: Human immunodeficiency virus type 1 integrase (Human immunodeficiency virus 1), Q7ZJM1 [Q148R]; test: Inhibition of HIV recombinant integrase Q148R mutant assessed as strand transfer activity using U5 GTC LTR by scintillation proximity assay relative to wild type LTR; design: scale not given: the % may be the effect or the level left; conditions: tested as the 3H-labelled form
[33] = tested on: Human immunodeficiency virus; test: Inhibition of HIV wild type integrase assessed as strand transfer activity using U5 GACA LTR by scintillation proximity assay relative to wild type LTR; design: scale not given: the % may be the effect or the level left; conditions: tested as the 3H-labelled form
[34] = tested on: Human immunodeficiency virus; test: Inhibition of HIV wild type integrase assessed as specific strand transfer activity using U5 GTAA LTR by scintillation proximity assay relative to wild type LTR; design: scale not given: the % may be the effect or the level left; conditions: tested as the 3H-labelled form
[35] = tested on: Human immunodeficiency virus type 1 integrase (Human immunodeficiency virus 1), Q7ZJM1 [Q148R]; test: Binding affinity to HIV recombinant integrase Q148R mutant using U5 GTdA LTR relative to wild type LTR; conditions: tested as the 3H-labelled form
[36] = tested on: Human immunodeficiency virus; test: Inhibition of HIV wild type integrase assessed as strand transfer activity U5 GTCA/CC LTR by scintillation proximity assay relative to wild type LTR; design: scale not given: the % may be the effect or the level left; conditions: tested as the 3H-labelled form
[37] = tested on: Human immunodeficiency virus; test: Inhibition of HIV wild type integrase assessed as strand transfer activity using U5 GCCA LTR by scintillation proximity assay relative to wild type LTR; design: scale not given: the % may be the effect or the level left; conditions: tested as the 3H-labelled form
[38] = tested on: Human immunodeficiency virus; test: Inhibition of HIV wild type integrase assessed as strand transfer activity using U5 GTAA LTR by scintillation proximity assay relative to wild type LTR; design: scale not given: the % may be the effect or the level left; conditions: tested as the 3H-labelled form
[39] = tested on: Human immunodeficiency virus; test: Inhibition of HIV wild type integrase assessed as strand transfer activity using U5 GTC LTR by scintillation proximity relative; design: scale not given: the % may be the effect or the level left; conditions: tested as the 3H-labelled form
[40] = Inhibition of HIV wild type integrase DNA complex; design: species or system Human immunodeficiency virus
[41] = tested on: Human immunodeficiency virus type 1 integrase (Human immunodeficiency virus 1), Q7ZJM1 [Q148R]; test: Binding affinity to HIV recombinant integrase Q148R mutant using U5 GTC LTR relative to wild type LTR; conditions: tested as the 3H-labelled form
[42] = tested on: Human immunodeficiency virus; test: Binding affinity to HIV wild type integrase using U5 GTGA LTR relative to wild type LTR; conditions: tested as the 3H-labelled form
[43] = tested on: Human immunodeficiency virus; test: Binding affinity to HIV wild type integrase using U5 GTCACA LTR relative to wild type LTR; conditions: tested as the 3H-labelled form
[44] = tested on: Human immunodeficiency virus; test: as §1; conditions: tested as the 3H-labelled form; remark: listed apart in the source
[45] = tested on: Human immunodeficiency virus; test: Inhibition of HIV wild type integrase assessed as specific strand transfer activity using U5 GTdA LTR by scintillation proximity assay relative to wild type LTR; design: scale not given: the % may be the effect or the level left; conditions: tested as the 3H-labelled form
[46] = tested on: Human immunodeficiency virus; test: Binding affinity to HIV wild type integrase using U5 GACA LTR relative to wild type LTR; conditions: tested as the 3H-labelled form

## Cn1c(N2CCCCS2(=O)=O)nc(C(=O)NCc2ccc(F)cc2)c(O)c1=O [BMS-707035]
[1]
  Activity: 75%
[2]
  Activity: < 25%
[3]
  Activity: < 25%
[4]
  Activity: 75%
[5]
  Activity: 40%
[6]
  Activity: 3%
[7]
  Activity: > 80%
[8]
  pIC50: 7.82
[9]
  Activity: 82%
[10]
  Activity: 19%
[11]
  Activity: 75%
[12]
  Activity: 2%
[13]
  Activity: 25%
[14]
  Activity: 22%
[15]
  Activity: 115%
[16]
  Activity: < 25%
[17]
  Activity: 8%
[18]
  Activity: 25%
[19]
  Activity: 75%
[20]
  Activity: 25%
[21]
  Activity: 10%
[22]
  Activity: < 25%
[23]
  Activity: 3%
[24]
  Activity: 25%
[25]
  Activity: 2.5%
[26]
  Activity: > 40%
[27]
  Activity: > 50%
[28]
  Activity: 75%
[29]
  Activity: < 25%
[30]
  Activity: 136%
[31]
  Activity: 0.5%
[32]
  Activity: 19%
[33]
  Activity: 75%
[34]
  Activity: 52%
[35]
  Activity: 2%
[36]
  Activity: < 25%
[37]
  Activity: 75%
[38]
  Activity: < 25%
[39]
  Activity: 109%
[40]
  pKi: 7.77
[41]
  Activity: 5%
[42]
  Activity: 74%
[43]
  Activity: 75%
[44]
  Activity: 25%
[45]
  Activity: 42%
[46]
  Activity: 25%

From ChEMBL document CHEMBL1156506, “Changes to the HIV long terminal repeat and to HIV integrase differentially impact HIV integrase assembly, activity, and the binding of strand transfer inhibitors” (J Biol Chem, 2007)
